The values that follow come from patent US6710048B2, “Pyrazine derivatives as modulators of tyrosine kinases” (Ortho-McNeil Pharmaceutical, Inc., priority 2000, dated 2004).

The subject of assay [1] is SK-OV-3 ovarian adenocarcinoma. Briefly: Cell proliferation assay (14C-thymidine incorporation), SK-OV-3. Format: cell-based. Particulars: Homo sapiens, read-out: Inhibition of cell proliferation IC50. How it is done:
(§1) The ability of a test compound to inhibit the proliferation of cell growth was determined by measuring incorporation of ^14C-labelled thymidine into newly synthesized DNA within the cells. This method was used on cell lines derived from carcinomas originating from several tissues such as HeLa cervical adenocarcinoma (American Type Culture Collection (ATCC), Virginia, Cat. #CCL-2), A375 malignant melanoma (ATCC CRL-1619), SK-OV-3 ovarian adenocarcinoma (ATCC HTB-77) HCT-116 colon carcinoma (CCL-247) and PC-3 prostate adenocarcinoma (ATCC CRL-1435). The method was also used on primary cells such as HUVEC endothelial cells (ATCC CRL-1730). In this way the effect of a compound on cell growth of cells with many different phenotypes can be determined. Cells were trypsinized and counted and 3000-8000 cells were added to each well of a 96-well CytoStar tissue culture treated scintillating microplate (Amersham #RPNQ0160) in complete medium in a volume of 100 μl. Cells were incubated for 24 hours in complete medium at 37° C. in an atmosphere containing 5% CO2.
(§2) Next, 1 μl of test compound in 100% DMSO was added to the wells of the plate. DMSO only was added to control wells. Cells were incubated for 24 more hours in complete medium at 37° C. in an atmosphere containing 5% CO2. Methyl ^14C-thymidine 56 mCi/mmol (NEN #NEC568 or Amersham #CFA532) was diluted in complete medium and 0.2 μCi/well was added to each well of the CytoStar plate in a volume of 20 μl. The plate was incubated for 24 hours at 37° C. plus 5% CO2 in drug plus ^14C-thymidine. The contents of the plate were discarded into a ^14C radioactive waste container by inverting the plate and the plate was washed twice with 200 μl PBS. 200 μl of PBS is then added to each well. The top of the plate was sealed with a transparent plate sealer and a white plate backing sealer (Packard #6005199) was applied to the bottom of the plate. The degree of Methyl ^14C-thymidine incorporation was quantified on a Packard Top Count.

Assay [2] concerns HeLa cervical adenocarcinoma. Briefly: Cell proliferation assay (14C-thymidine incorporation), HeLa. Format: cell-based. The conditions noted are these: Homo sapiens, read-out: Inhibition of cell proliferation IC50. How it is done: as §1, §2
The test system of assay [3] is PC-3 prostate adenocarcinoma. Kind of assay: Cell proliferation assay (14C-thymidine incorporation), PC-3. Particulars: Homo sapiens, read-out: Inhibition of cell proliferation IC50. Format: cell-based. As for the experimental part:
as §1, §2

The target in assay [4] is T1, CDK1 (cyclin dependent kinase 1) / cyclin B (Homo sapiens, UniProt P06493).
T1 construct: purchased New England Biolabs 6020; host or cells: insect cells
Briefly: CDK1 kinase assay. Format: biochemical. Particulars: Tables 1-3; >10 or >100 = no 50% inhibition at highest dose tested; read-out: CDK IC50. How it is done:
(§3) The term n.d. means not tested.
Assays to test compound inhibition of other kinases were preformed using methods that measure the amount of phosphorylation of a biotinylated peptide substrate. Biotinylated peptide substrates were selected from the literature as appropriate for the enzyme being evaluated. The general procedure used to assay for kinase activity is as follows: A kinase reaction mix was prepared in 50 mM Tris-HCl pH=8, 10 mM MgCl2, 0.1 mM NaVO4, 1 mM DTT, 5-10 μM ATP, 0.25-1 μM biotinylated peptide substrate, 0.2-0.8 μCuries per well ^33P-γ-ATP [2000-3000 Ci/mmol]. Assay conditions vary slightly for each protein kinase, for example, insulin receptor kinase requires 10 mM MnCl2 for activity and Calmodulin-dependent protein kinase requires calmodulin and 2 mM CaCl2. The reaction mixture was dispensed into the wells of a streptavidin coated Flashplate and 1 μl drug stock in 100% DMSO was added to a 100 μl reaction volume resulting in a final concentration of 1% DMSO in the reaction. Enzyme was diluted in 50 mM Tris-HCl pH=8.0, 0.1% BSA and added to each well. The reaction was incubated for one hour at 30° C. in the presence of compound. After one hour the reaction mix was aspirated from the plate and the plate was washed with PBS containing 100 mM EDTA. The plate was read on a scintillation counter to determine ^33P-γ-ATP incorporated into the immobilized peptide. […] A maximum and minimum signal for the assay was determined on each plate. The IC50 was calculated from the dose response curve of the percent inhibition of the maximum signal in the assay according to the formula [max signal−background/test compound signal−background (100)=% inhibition] by graphing the percent inhibition against the log concentration of test compound. Known inhibitor compounds appropriate for the kinase being assayed were also included on each plate.
VEGF-R (vascular endothelial growth factor receptor-2) is a fusion protein containing a polyhistidine tag at the N-terminus followed by amino acids 786-1343 of the rat VEGF-R2 kinase domain (GenBank Accession #U93306). CDK1 (cyclin dependent kinase 1) is isolated from insect cells expressing both the human CDK1 catalytic subunit and its positive regulatory subunit cyclin B (New England Biolabs, Beverly, Mass., Cat. #6020). CDK4 (cyclin dependent kinase 4) contains amino acids 769 to 921 of the mouse […] protein found in the GST-retinoblastoma protein construct (Santa Cruz Biotechnology, Santa Cruz, Calif.; Cat. #SC-4112). Insulin Receptor Kinase consists of residues 941-1313 of the cytoplasmic domain of the beta-subunit of the human insulin receptor (BIOMOL, Plymouth Meeting, Pa., Cat. #SE-195). Protein Kinase A is the catalytic subunit of cAMP dependent protein kinase-A purified from bovine heart (Upstate Biotech, Lake Placid, N.Y., Cat#14-114). PKC (protein kinase-C) is the gamma or beta isoform of the human protein produced in insect cells (BIOMOL, Plymouth Meeting, Pa., Cat. #SE-143). Casein Kinase 1 is a truncation at amino acid 318 of the C-terminal portion of the rat CK1 delta isoform produced in E.coli (New England Biolabs, Beverly, Mass., Cat. #6030). Casein Kinase 2 includes the alpha and beta subunits of the human CK2 protein produced in E.coli (New England Biolabs, Beverly, Mass., Cat. #6010). Calmodulin Kinase (calmodulin-dependent protein kinase 2) is a truncated version of the alpha subunit of the rat protein produced in insect cells (New England Biolabs, Beverly, Mass., Cat. #6060). Glycogen Synthase Kinase-3 is the beta isoform of the rabbit enzyme produced in E. coli (New England Biolabs, Beverly, Mass., Cat. #6040). MAP Kinase is the rat ERK-2 isoform containing a polyhistidine tag at the N-terminus produced in E. coli. and activated by phosphorylation with MEK1 prior to purification (BIOMOL, Plymouth Meeting, Pa., Cat. #SE-137). EGFR (epidermal growth factor receptor) is purified from human A431 cell membranes (Sigma, St. Louis, Mo., Cat.# E3641). […]

For assay [5], the target named is T2, VEGF-R (vascular endothelial growth factor receptor-2) (Rattus norvegicus, UniProt O08775).
T2 construct: polyhistidine (6xHis) (N)
Kind of assay: VEGF-R screening assay (33P FlashPlate kinase assay). Format: biochemical. Particulars: Tables 1-3; >10 or >100 = no 50% inhibition at highest dose tested; read-out: VEGF-R IC50. As for the experimental part:
A kinase reaction mixture was prepared containing 50 mM Tris-HCl pH=8, 10 mM MgCl2, 0.1 mM NAPO4, 1 mM DTT, 10 μM ATP, 0.025 μM biotinylated peptide substrate and 0.8 μCuries per well ^33P-γ-ATP [2000-3000 Ci/mmol]. 70 μl of the kinase reaction mixture was dispensed into the well of a streptavidin coated FlashPlate™ (Cat. # SMP103, NEN, Boston, Mass.). Then 1 μl of test compound stock in 100% DMSO was added to the wells resulting in a final concentration of 1% DMSO in the reaction with a 100 μl final reaction volume. Next, soluble rat tyrosine kinase containing an N-terminal 6×HIS tag was diluted in 50 mM Tris-HCl pH=8.0, 0.1% BSA at a concentration of 5 ng per microliter and 30 μl (150 ng enzyme per test well) was added to each well to initiate the reaction. The reaction was incubated for one hour at 30° C. At the end of the 1-hour incubation, the reaction was terminated by aspirating the reaction mixture from the plate and washing the wells twice with PBS containing 100 mM EDTA. The PLCI biotinylated peptide substrate becomes immobilized on the Flashplate™ and the incorporation of ^33P-γ-ATP was measured by reading the plate on a scintillation counter. Inhibition of the enzymatic activity of the VEGF-R was measured by observing a reduced amount of ^33P-γ-ATP incorporated into the immobilized peptide.
as §3
Assays to test compound inhibition of other kinases were preformed using methods that measure the amount of phosphorylation of a biotinylated peptide substrate. Biotinylated peptide substrates were selected from the literature as appropriate for the enzyme being evaluated. The general procedure used to assay for kinase activity is as follows: A kinase reaction mix was prepared in 50 mM Tris-HCl pH=8, 10 mM MgCl2, 0.1 mM NaVO4, 1 mM DTT, 5-10 μM ATP, 0.25-1 μM biotinylated peptide substrate, 0.2-0.8 μCuries per well ^33P-γ-ATP [2000-3000 Ci/mmol]. Assay conditions vary slightly for each protein kinase, for example, insulin receptor kinase requires 10 mM MnCl2 for activity and Calmodulin-dependent protein kinase requires calmodulin and 2 mM CaCl2. The reaction mixture was dispensed into the wells of a streptavidin coated Flashplate and 1 μl drug stock in 100% DMSO was added to a 100 μl reaction volume resulting in a final concentration of 1% DMSO in the reaction. Enzyme was diluted in 50 mM Tris-HCl pH=8.0, 0.1% BSA and added to each well. The reaction was incubated for one hour at 30° C. in the presence of compound. After one hour the reaction mix was aspirated from the plate and the plate was washed with PBS containing 100 mM EDTA. The plate was read on a scintillation counter to determine ^33P-γ-ATP incorporated into the immobilized peptide. Test compounds were assayed in duplicate at 8 concentrations [100 tM, 10 μM, 1 μM, 100 nM, 10 nM, 1 nM, 100 μM, 10 μM]. A maximum and minimum signal for the assay was determined on each plate. The IC50 was calculated from the dose response curve of the percent inhibition of the maximum signal in the assay according to the formula [max signal−background/test compound signal−background (100)=% inhibition] by graphing the percent inhibition against the log concentration of test compound. Known inhibitor compounds appropriate for the kinase being assayed were also included on each plate.
VEGF-R (vascular endothelial growth factor receptor-2) is a fusion protein containing a polyhistidine tag at the N-terminus followed by amino acids 786-1343 of the rat VEGF-R2 kinase domain (GenBank Accession #U93306). CDK1 (cyclin dependent kinase 1) is isolated from insect cells expressing both the human CDK1 catalytic subunit and its positive regulatory subunit cyclin B (New England Biolabs, Beverly, Mass., Cat. #6020). CDK4 (cyclin dependent kinase 4) contains amino acids 769 to 921 of the mouse […] protein found in the GST-retinoblastoma protein construct (Santa Cruz Biotechnology, Santa Cruz, Calif.; Cat. #SC-4112). […]

pIC50: −log10 of the molar value.

T2 sequence (O08775 786-1343): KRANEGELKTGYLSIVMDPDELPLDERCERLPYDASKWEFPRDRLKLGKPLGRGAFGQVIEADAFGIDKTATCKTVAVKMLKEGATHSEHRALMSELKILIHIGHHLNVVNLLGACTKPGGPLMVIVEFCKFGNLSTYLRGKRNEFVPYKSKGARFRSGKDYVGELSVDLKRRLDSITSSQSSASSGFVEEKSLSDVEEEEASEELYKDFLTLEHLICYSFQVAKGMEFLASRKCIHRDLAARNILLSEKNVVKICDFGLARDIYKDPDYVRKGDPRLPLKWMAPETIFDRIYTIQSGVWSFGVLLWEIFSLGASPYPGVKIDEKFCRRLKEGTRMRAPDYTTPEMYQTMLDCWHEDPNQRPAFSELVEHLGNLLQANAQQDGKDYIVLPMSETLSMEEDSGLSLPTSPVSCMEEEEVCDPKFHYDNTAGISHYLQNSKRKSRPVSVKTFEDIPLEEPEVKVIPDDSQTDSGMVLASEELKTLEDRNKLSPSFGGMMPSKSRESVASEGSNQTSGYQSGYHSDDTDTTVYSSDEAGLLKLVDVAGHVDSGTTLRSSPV
T1 sequence (P06493 whole entry): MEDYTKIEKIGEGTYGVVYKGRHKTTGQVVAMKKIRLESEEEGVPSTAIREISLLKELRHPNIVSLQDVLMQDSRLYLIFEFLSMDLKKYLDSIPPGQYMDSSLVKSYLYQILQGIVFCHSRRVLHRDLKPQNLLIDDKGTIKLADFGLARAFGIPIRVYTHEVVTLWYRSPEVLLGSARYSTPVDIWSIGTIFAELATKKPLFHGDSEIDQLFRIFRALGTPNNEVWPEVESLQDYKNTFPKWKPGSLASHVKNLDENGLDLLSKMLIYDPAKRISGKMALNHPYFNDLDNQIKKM
T1 sequence (P14635 whole entry partner): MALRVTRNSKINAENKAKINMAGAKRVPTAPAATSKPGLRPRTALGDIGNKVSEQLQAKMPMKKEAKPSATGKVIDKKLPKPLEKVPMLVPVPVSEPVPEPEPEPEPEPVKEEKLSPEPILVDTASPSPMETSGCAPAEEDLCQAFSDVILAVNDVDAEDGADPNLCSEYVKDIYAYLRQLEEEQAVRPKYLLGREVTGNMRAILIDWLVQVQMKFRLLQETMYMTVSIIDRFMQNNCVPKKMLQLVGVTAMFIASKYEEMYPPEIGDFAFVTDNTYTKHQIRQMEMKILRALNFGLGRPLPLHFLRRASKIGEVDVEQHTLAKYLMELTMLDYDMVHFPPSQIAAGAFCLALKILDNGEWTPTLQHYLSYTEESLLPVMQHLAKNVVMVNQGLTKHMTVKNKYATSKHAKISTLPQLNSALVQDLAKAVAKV

Take `Clc1cccc(Nc2cncc(-c3cncc(NCCCn4cccn4)c3)n2)c1` [Cmd 75, N-(3-chlorophenyl)-6-[5-[[3-(1H-pyrazol-1-yl)propyl]amino]-3-pyridinyl]-2-pyrazinamine]: the pIC50 was under 5.00 in assay [1], 4.90 in assay [2] and 5.27 in assay [3].
Consider `Clc1cccc(Nc2cncc(-c3cncc(NCCCn4cncn4)c3)n2)c1` [Cmd 76, N-(3-chlorophenyl)-6-[5-[[3-(1H-1,2,4-triazol-1-yl)propyl]amino]-3-pyridinyl]-2-pyrazinamine], for which the figures for the pIC50 in assay [1] and in assay [2] were 4.89 and 5.31, respectively.
With `OCCCNc1cncc(-c2cncc(Oc3cccc(Cl)c3)n2)c1` [Cmd 96], the pIC50 in assay [4] and in assay [5] was under 5.00 throughout.
As to `COCCOCC(=O)Nc1cncc(-c2cncc(Nc3cccc(Cl)c3)n2)c1` [Cmd 98], the values for the pIC50 in assay [4] and in assay [5] were under 5.00 and 6.00, respectively.
In the same order, the values of `O=C(COc1ccccc1)Nc1cncc(-c2cncc(Nc3cccc(Cl)c3)n2)c1` [Cmd 99] are under 5.00 and under 5.00.
On the same counts, the results for `O=C(CCCOc1ccccc1)Nc1cncc(-c2cncc(Nc3cccc(Cl)c3)n2)c1` [Cmd 100] are under 5.00 and under 5.00.
Regarding `O=C(COCc1ccccc1)Nc1cncc(-c2cncc(Nc3cccc(Cl)c3)n2)c1` [Cmd 101], the pIC50 in assay [4] and in assay [5] was under 5.00 in each case.
In the case of `CCOCC(=O)Nc1cncc(-c2cncc(Nc3cccc(Cl)c3)n2)c1` [Cmd 102], the pIC50 in assay [4] is under 5.00; in assay [5] it was 6.03.
On the same counts, the results for `COCCC(=O)Nc1cncc(-c2cncc(Nc3cccc(Cl)c3)n2)c1` [Cmd 103] are under 5.00 and 6.23.
In the same order, the values of `O=C(CO)Nc1cncc(-c2cncc(Nc3cccc(Cl)c3)n2)c1` [Cmd 105] are under 5.00 and 6.39.
As to `OCCCNc1cnc(F)c(-c2cncc(Nc3cccc(Cl)c3)n2)c1` [Cmd 106], the pIC50 was under 5.00 in assay [4] and 6.44 to 6.86 in assay [5].
As for `Nc1ncc(NCCCO)cc1-c1cncc(Nc2cccc(Cl)c2)n1` [Cmd 107], the pIC50 in assay [4] is under 5.00; in assay [5], 5.87.
As to `CC(=O)Nc1ncc(NCCCO)cc1-c1cncc(Nc2cccc(Cl)c2)n1` [Cmd 109], the pIC50 in assay [4] and in assay [5] was under 5.00 in each case.
For the compound `OCCCNc1cnc(Cl)c(-c2cncc(Nc3cccc(Cl)c3)n2)c1` [Cmd 110], the pIC50 in assay [4] and in assay [5] was under 5.00 each time.
For `N#Cc1ncc(NCCCO)cc1-c1cncc(Nc2cccc(Cl)c2)n1` [Cmd 111], the pIC50 in assay [4] and in assay [5] was under 5.00 each time.
